# Experimental data reported in ChEMBL document CHEMBL5214978, “Identification of 1,4-Benzodiazepine-2,5-dione Derivatives as Potential Protein Synthesis Inhibitors with Highly Potent Anticancer Activity” (J Med Chem, 2022).
# Active and inactive are the calls of the source. The rule behind the calls is not given here.
# How the values were obtained:
# [1] = tested on: NCI-H661; experiment: Anticancer activity against human NCI-H661 cells assessed as cell growth inhibition; assay type: functional, cell-based
# [2] = tested on: MCF7; experiment: Anticancer activity against human MCF7 cells assessed as cell growth inhibition
# [3] = tested on: MDA-MB-231; experiment: Anticancer activity against human MDA-MB-231 cells assessed as cell growth inhibition
# [4] = tested on: A498; experiment: Anticancer activity against human A498 cells assessed as cell growth inhibition; assay type: functional, cell-based
# [5] = target: T1, Nuclear receptor subfamily 6 group A member 1 (Homo sapiens, UniProt Q15406); experiment: Antagonist activity at GCNF (unknown origin) by luciferase reporter gene assay
# T1 sequence (Q15406 whole entry): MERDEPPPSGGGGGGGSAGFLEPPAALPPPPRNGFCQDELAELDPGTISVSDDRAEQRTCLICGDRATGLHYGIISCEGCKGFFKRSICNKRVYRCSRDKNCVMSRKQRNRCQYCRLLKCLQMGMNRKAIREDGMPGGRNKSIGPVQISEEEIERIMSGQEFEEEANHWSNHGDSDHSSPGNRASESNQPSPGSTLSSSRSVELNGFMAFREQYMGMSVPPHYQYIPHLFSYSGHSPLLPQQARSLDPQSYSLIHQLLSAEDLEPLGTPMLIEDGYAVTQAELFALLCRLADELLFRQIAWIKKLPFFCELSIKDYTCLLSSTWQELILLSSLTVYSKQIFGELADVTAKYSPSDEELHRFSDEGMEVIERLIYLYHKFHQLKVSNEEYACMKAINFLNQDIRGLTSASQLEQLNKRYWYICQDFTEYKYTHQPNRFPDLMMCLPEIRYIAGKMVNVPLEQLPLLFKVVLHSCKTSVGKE
# [6] = tested on: A549; experiment: Anticancer activity against human A549 cells assessed as cell growth inhibition measured after 48 hrs by SRB assay; assay type: functional
# [7] = tested on: HCT-116; experiment: Anticancer activity against human HCT-116 cells assessed as cell growth inhibition measured after 48 hrs by SRB assay; assay type: functional
# [8] = tested on: SF-295; experiment: Anticancer activity against human SF-295 cells assessed as cell growth inhibition measured after 48 hrs by SRB assay; assay type: functional
# [9] = tested on: LOX IMVI; experiment: Anticancer activity against human LOX IMVI cells assessed as cell growth inhibition measured after 48 hrs by SRB assay; assay type: functional
# [10] = tested on: 786-0; experiment: Anticancer activity against human 786-0 cells assessed as cell growth inhibition measured after 48 hrs by SRB assay; assay type: functional
# [11] = tested on: Panel NCI-60 (60 carcinoma cell lines); experiment: Anticancer activity against human Panel NCI-60 (60 carcinoma cell lines) line assessed as cell growth inhibition measured after 48 hrs by SRB assay; assay type: functional
# [12] = Inhibition of tubulin polymerization […] assessed as microtubule assembly measured every 1 min for 60 mins by fluorimeter analysis
# [13] = tested on: NCI-H460; experiment: Induction of cell cycle arrest in human NCI-H460 cells assessed as accumulation at S phase at 20 nM incubated for 48 hrs by PI staining based flow cytometric analysis; assay type: functional
# [14] = tested on: NCI-H522; experiment: Induction of apoptosis in human NCI-H522 cells assessed as viable cells at 0.05 uM incubated for 48 hrs by Annexin V-FITC/PI staining based flow cytometric analysis (reference value: 82.4%); assay type: functional; conditions: read-out: Activity
# [15] = tested on: NCI-H522; experiment: Induction of apoptosis in human NCI-H522 cells assessed as early apoptotic cells at 0.05 uM incubated for 48 hrs by Annexin V-FITC/PI staining based flow cytometric analysis (Rvb =7.01 %); assay type: functional
# [16] = tested on: NCI-H522; experiment: Induction of apoptosis in human NCI-H522 cells assessed as late apoptotic cells at 0.05 uM incubated for 48 hrs by Annexin V-FITC/PI staining based flow cytometric analysis (Rvb =9.14 %); assay type: functional
# [17] = tested on: NCI-H522; experiment: Induction of apoptosis in human NCI-H522 cells assessed as necrotic cells at 0.05 uM incubated for 48 hrs by Annexin V-FITC/PI staining based flow cytometric analysis (Rvb =0.64 %); assay type: functional
# [18] = tested on: NCI-H522; experiment: Induction of apoptosis in human NCI-H522 cells assessed as viable cells at 0.5 uM incubated for 48 hrs by Annexin V-FITC/PI staining based flow cytometric analysis (reference value: 82.4%); assay type: functional; conditions: read-out: Activity
# [19] = tested on: NCI-H522; experiment: Induction of apoptosis in human NCI-H522 cells assessed as early apoptotic cells at 0.5 uM incubated for 48 hrs by Annexin V-FITC/PI staining based flow cytometric analysis (Rvb =7.01 %); assay type: functional
# [20] = tested on: NCI-H522; experiment: Induction of apoptosis in human NCI-H522 cells assessed as late apoptotic cells at 0.5 uM incubated for 48 hrs by Annexin V-FITC/PI staining based flow cytometric analysis (Rvb =9.14 %); assay type: functional
# [21] = tested on: NCI-H522; experiment: Induction of apoptosis in human NCI-H522 cells assessed as necrotic cells at 0.5 uM incubated for 48 hrs by Annexin V-FITC/PI staining based flow cytometric analysis (Rvb =0.64 %); assay type: functional
# [22] = tested on: NCI-H522; experiment: Induction of apoptosis in human NCI-H522 cells assessed as viable cells at 5 uM incubated for 48 hrs by Annexin V-FITC/PI staining based flow cytometric analysis (reference value: 82.4%); assay type: functional; conditions: read-out: Activity
# [23] = tested on: NCI-H522; experiment: Induction of apoptosis in human NCI-H522 cells assessed as early apoptotic cells at 5 uM incubated for 48 hrs by Annexin V-FITC/PI staining based flow cytometric analysis (Rvb =7.01 %); assay type: functional
# [24] = tested on: NCI-H522; experiment: Induction of apoptosis in human NCI-H522 cells assessed as late apoptotic cells at 5 uM incubated for 48 hrs by Annexin V-FITC/PI staining based flow cytometric analysis (Rvb =9.14 %); assay type: functional
# [25] = tested on: NCI-H522; experiment: Induction of apoptosis in human NCI-H522 cells assessed as necrotic cells at 5 uM incubated for 48 hrs by Annexin V-FITC/PI staining based flow cytometric analysis (Rvb =0.64 %); assay type: functional
# [26] = tested on: NCI-H522; experiment: Induction of apoptosis in human NCI-H522 cells assessed as apoptotic rate at 0.05 to 5 uM incubated for 48 hrs by AnnexinV-FITC/PI staining based flow cytometric analysis; assay type: functional; conditions: dose 0.05-5 µM
# [27] = tested on: NCI-H460; experiment: Induction of apoptosis in human NCI-H460 cells assessed as effect on cleavage of PARP at 1 uM measured for 48 hrs by western blot analysis; assay type: functional, cell-based
# [28] = tested on: NCI-H460; experiment: Induction of apoptosis in human NCI-H460 cells assessed as effect on caspase 3 level at 1 uM measured for 48 hrs by western blot analysis; assay type: functional, cell-based
# [29] = tested on: NCI-H460; experiment: Induction of apoptosis in human NCI-H460 cells assessed as effect on caspase 7 level at 1 uM measured for 48 hrs by western blot analysis; assay type: functional, cell-based
# [30] = tested on: NCI-H460; experiment: Induction of apoptosis in human NCI-H460 cells assessed as effect on caspase 9 level at 1 uM measured for 48 hrs by western blot analysis; assay type: functional, cell-based
# [31] = tested on: NCI-H522; experiment: Induction of mitochondrial membrane potential depolarization in human NCI-H522 cells measured after 48 hrs by JC-1 staining based flow cytometry analysis; assay type: functional, cell-based; conditions: dose 0.05-5 µM, DDE = dose-dependent effect
# [32] = tested on: NCI-H460; experiment: Downregulation of c-Myc protein expression level in human NCI-H460 cells at 20 nM incubated for 0.5 to 6 hrs by western blot analysis; assay type: functional, cell-based; conditions: time 0.5-6 hrs
# [33] = tested on: NCI-H460; experiment: Inhibition of polyribosome in human NCI-H460 cells assessed as increase in 80S ribosome at 200 nM incubated for 1 hr in presence of cycloheximide; assay type: functional, cell-based
# [34] = Cmax in BALB/c nude mouse at 1 mg/kg, iv by LC-MS/MS analysis; assay type: ADME, organism-based; design: dose 1 mg/kg, route iv; conditions: in vivo
# [35] = Cmax in BALB/c nude mouse at 10 mg/kg, po by LC-MS/MS analysis; assay type: ADME, organism-based; design: dose 10 mg/kg, route po; conditions: in vivo
# [36] = AUC (0 to t) in BALB/c nude mouse at 1 mg/kg, iv by LC-MS/MS analysis; assay type: ADME, organism-based; design: dose 1 mg/kg, route iv; conditions: in vivo
# [37] = AUC (0 to t) in BALB/c nude mouse at 10 mg/kg, po by LC-MS/MS analysis; assay type: ADME, organism-based; design: dose 10 mg/kg, route po; conditions: in vivo
# [38] = Half life in BALB/c nude mouse at 10 mg/kg, po by LC-MS/MS analysis; assay type: ADME, organism-based; conditions: in vivo
# [39] = Oral bioavailability in BALB/c nude mouse at 10 mg/kg by LC-MS/MS analysis; assay type: ADME, organism-based; conditions: in vivo
# [40] = tested on: NCI-H522; experiment: Antitumor activity against human NCI-H522 cells xenografted in iv dosed BALB/c nude mouse assessed as inhibition of tumor growth administered every 4 days for 21 days; assay type: functional, organism-based; conditions: dose 12.5-50 mg/kg, time 4.0 day, DDE = dose-dependent effect
# [41] = tested on: NCI-H522; experiment: Antitumor activity against human NCI-H522 cells xenografted in BALB/c nude mouse assessed as reduction of tumor weight at 50 mg/kg, iv administered every 4 days for 21 days; assay type: functional; design: scale not given: the % may be the effect or the level left; conditions: time 4 day
# [42] = tested on: NCI-H522; experiment: Antitumor activity against human NCI-H522 cells xenografted in BALB/c nude mouse assessed as reduction of tumor growth by measuring T/C ratio at 50 mg/kg, iv administered every 4 days for 21 days; assay type: functional; conditions: time 4 day
# [43] = Toxicity in BALB/c nude mouse xenografted with human NCI-H522 cells assessed as change in body weight at 12.5 to 50 mg/kg, iv administered every 4 days for 21 days; assay type: organism-based; conditions: in vivo, 96 h, dose 12.5-50 mg/kg, time 4 day
# [44] = tested on: Panel NCI-60 (60 carcinoma cell lines); experiment: Anticancer activity against human Panel NCI-60 (60 carcinoma cell lines) cells assessed as cell growth inhibition; assay type: functional
compound,measurement,setting,value
O=C(CCCCCN1C(=O)c2ccccc2N(Cc2ccccc2)C(=O)[C@@H]1Cc1ccccc1)NO,IC50,[1],6 µM
C[C@H](c1ccc(Cl)cc1)N1C(=O)c2cc(I)ccc2N(CCCCC(=O)O)C(=O)[C@@H]1c1ccc(Cl)cc1,IC50,[2],7 µM
same,IC50,[3],67 µM
O=C1Nc2ccc(Br)cc2C(=O)N(Cc2ccccc2Sc2ccc(Cl)cc2)[C@@H]1Cc1ccccc1,IC50,[4],5 µM
same,EC50,[5],< 7 µM
CCN(CC)C(=O)C[C@H]1C(=O)Nc2cc(NC(=O)c3cc(OC)c(OC)c(OC)c3Br)c(Oc3cc(C)cc(C)c3)cc2C(=O)N1C,GI50,[6],< 0.005 µM
same,GI50,[7],< 0.005 µM
same,GI50,[8],< 0.005 µM
same,GI50,[9],< 0.005 µM
same,GI50,[10],< 0.005 µM
same,GI50,[11],< 0.005 µM
same,IC50,[12],10.1 µM
same,Activity,[13],Active
same,viability at 0.05 µM,[14],65.8%
same,Activity,[15],7.75%
same,Activity,[16],25.2%
same,Activity,[17],1.25%
same,viability at 0.5 µM,[18],28.4%
same,Activity,[19],14.5%
same,Activity,[20],52.4%
same,Activity,[21],4.6%
same,viability at 5 µM,[22],13.5%
same,Activity,[23],19.8%
same,Activity,[24],59%
same,Activity,[25],7.64%
same,Activity,[26],35%
same,Activity,[27],Active
same,Activity,[28],Active
same,Activity,[29],Active
same,Activity,[30],Active
same,Activity,[31],Dde
same,Activity,[32],Active
same,Activity,[33],Active
same,Cmax,[34],1540 ng/mL
same,Cmax,[35],42.6 ng/mL
same,AUC(0-t),[36],439 ng·h/mL
same,AUC(0-t),[37],66.5 ng·h/mL
same,half-life,[38],1.4 h
same,bioavailability,[39],1.53%
same,Activity,[40],Dde
same,Activity,[41],88.7%
same,T/C,[42],13.6%
same,Activity,[43],< 10%
O=C1Nc2ccccc2C(=O)N2C=C(c3ccc(Br)cc3)C[C@@H]12,GI50,[4],0.51 µM
same,GI50,[44],7.41 µM
COC(=O)C[C@@H]1NC(=O)c2cc(-c3cc(C)cc(C)c3)c(NC(=O)c3cc(OC)c(OC)c(OC)c3)cc2NC1=O,GI50,[6],> 50 µM
same,GI50,[7],> 50 µM
same,GI50,[8],> 50 µM
same,GI50,[9],> 50 µM
same,GI50,[10],> 50 µM
same,GI50,[11],> 50 µM
